Consider 14 compounds from ChEMBL document CHEMBL5376027, “Discovery of 5-trifluoromethyl-2-aminopyrimidine derivatives as potent dual inhibitors of FLT3 and CHK1” (RSC Med Chem, 2024).

Calls of active or inactive are those of the source. The calls are words filed in the database; no cut-off is given here. Where only a bound is given, the exact number is not on record here.

For data set [1], the target named is T1, Serine/threonine-protein kinase Chk1 (Homo sapiens, UniProt O14757).
T1 sequence (O14757 whole entry): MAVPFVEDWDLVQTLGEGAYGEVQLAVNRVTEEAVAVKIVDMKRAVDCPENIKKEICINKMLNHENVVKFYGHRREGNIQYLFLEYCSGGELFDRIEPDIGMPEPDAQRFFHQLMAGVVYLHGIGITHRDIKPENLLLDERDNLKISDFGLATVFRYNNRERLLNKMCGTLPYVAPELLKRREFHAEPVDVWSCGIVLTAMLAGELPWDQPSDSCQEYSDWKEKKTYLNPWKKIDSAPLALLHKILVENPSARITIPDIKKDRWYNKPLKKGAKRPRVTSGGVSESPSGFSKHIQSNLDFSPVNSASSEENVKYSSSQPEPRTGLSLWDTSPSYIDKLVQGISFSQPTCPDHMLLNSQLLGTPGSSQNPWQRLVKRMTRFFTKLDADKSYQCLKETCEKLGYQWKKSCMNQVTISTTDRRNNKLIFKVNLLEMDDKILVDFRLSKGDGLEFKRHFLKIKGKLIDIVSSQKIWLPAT
Description: Inhibition of CHK1 (unknown origin) using peptide substrate incubated for 1 hrs in presence of ATP by fluorescence microplate reader analysis

A further data set concerns the target hERG (KCNH2) (Homo sapiens, UniProt Q12809). Nature of the data set: Inhibition of hERG expressed in HEK293 cells at 10 uM incubated by patch clamp assay relative to control. As to conditions: HEK293 cells that express hERG. In kind it is toxicity, cell-based. A general note: Block of hERG is tested as a sign of cardiac risk.
In data set [2] the target is Mast/stem cell growth factor receptor Kit (Homo sapiens, UniProt P10721).
Description: Inhibition of c-kit (unknown origin) using peptide substrate incubated for 1 hrs in presence of ATP by fluorescence microplate reader analysis
Data set [3] deals with Cyclin-dependent kinase 2 (Homo sapiens, UniProt P24941). Nature of the data set: Inhibition of CDK2 (unknown origin) incubated for 1 hrs by fluorescence microplate reader.
Data set [4] has as its target T2, Serine/threonine-protein kinase Chk1 (Homo sapiens) (UniProt O14757).
T2 sequence (whole entry): T1 sequence (O14757 whole entry)
As to conditions: MV4-11, dose 50-200 nM.
Description: Inhibition of CHK1 phosphorylation at S296 residue in human MV4-11 cells at 50 to 200 nM by Western blot analysis

The target in data set [5] is T3, Serine/threonine-protein kinase 17B (Homo sapiens, UniProt O94768).
T3 sequence (O94768 whole entry): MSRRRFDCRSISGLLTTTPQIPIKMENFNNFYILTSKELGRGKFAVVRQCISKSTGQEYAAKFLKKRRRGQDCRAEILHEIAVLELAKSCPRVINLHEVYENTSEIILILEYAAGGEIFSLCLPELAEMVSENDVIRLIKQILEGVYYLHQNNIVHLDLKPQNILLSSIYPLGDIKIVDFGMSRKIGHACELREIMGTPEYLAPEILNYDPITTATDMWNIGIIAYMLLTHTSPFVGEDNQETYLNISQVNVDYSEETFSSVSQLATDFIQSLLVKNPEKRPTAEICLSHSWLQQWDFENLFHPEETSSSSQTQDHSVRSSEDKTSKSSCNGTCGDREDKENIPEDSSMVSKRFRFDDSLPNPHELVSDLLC
Description: Inhibition of DRAK2 (unknown origin) expressed in Escherichia coli incubated for 2 hrs by ADP-Glo assay. In general terms: ADP-Glo turns the ADP formed in a reaction into a luminescent signal.

The target of a further data set is T4, Aurora kinase A (Homo sapiens, UniProt O14965).
T4 sequence (O14965 whole entry): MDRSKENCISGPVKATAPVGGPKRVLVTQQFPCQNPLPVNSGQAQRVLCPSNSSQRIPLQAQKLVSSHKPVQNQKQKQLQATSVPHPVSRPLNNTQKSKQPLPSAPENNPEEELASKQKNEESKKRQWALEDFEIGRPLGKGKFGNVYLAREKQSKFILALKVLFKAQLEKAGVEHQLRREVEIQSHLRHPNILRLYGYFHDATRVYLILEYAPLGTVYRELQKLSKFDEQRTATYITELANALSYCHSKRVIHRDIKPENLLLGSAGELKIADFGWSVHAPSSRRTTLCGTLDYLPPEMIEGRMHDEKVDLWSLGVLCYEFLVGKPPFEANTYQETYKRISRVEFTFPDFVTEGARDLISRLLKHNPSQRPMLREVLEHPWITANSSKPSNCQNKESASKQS
Description: Inhibition of Aurora A (unknown origin) expressed in Escherichia coli using peptide substrate incubated for 1 hrs in presence of ATP by fluorescence microplate reader.

The target in data set [6] is T5, Interleukin-1 receptor-associated kinase 4 (Homo sapiens, UniProt Q9NWZ3).
T5 sequence (Q9NWZ3 whole entry): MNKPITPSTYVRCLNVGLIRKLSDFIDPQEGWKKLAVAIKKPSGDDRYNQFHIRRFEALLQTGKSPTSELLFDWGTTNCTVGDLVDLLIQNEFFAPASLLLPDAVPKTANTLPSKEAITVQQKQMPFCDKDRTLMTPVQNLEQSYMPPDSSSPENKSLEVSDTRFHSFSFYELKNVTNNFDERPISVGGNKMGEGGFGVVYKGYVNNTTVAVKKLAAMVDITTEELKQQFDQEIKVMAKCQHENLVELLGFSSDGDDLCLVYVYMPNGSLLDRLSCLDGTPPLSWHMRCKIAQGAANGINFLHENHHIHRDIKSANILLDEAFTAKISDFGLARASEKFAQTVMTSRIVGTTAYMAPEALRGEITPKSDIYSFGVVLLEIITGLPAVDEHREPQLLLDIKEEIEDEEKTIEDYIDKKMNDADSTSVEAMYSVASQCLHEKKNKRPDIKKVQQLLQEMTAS
Description: Inhibition of IRAK4 (unknown origin) using peptide substrate incubated for 1 hrs in presence of ATP by fluorescence microplate reader.

In data set [7] the target is Tyrosine-protein kinase BTK (Homo sapiens, UniProt Q06187). Description: Inhibition of BTK (unknown origin) using peptide substrate incubated for 1 hrs in presence of ATP by fluorescence microplate reader.
For data set [8], the target named is T2, Serine/threonine-protein kinase Chk1 (Homo sapiens). To be noted: MV4-11, dose 50-200 nM. The source holds these as a separate data set.
Description: Inhibition of CHK1 in human MV4-11 cells assessed as decrease in c-Myc protein expression level at 50 to 200 nM by Western blot analysis
Data set [9] deals with Epidermal growth factor receptor (Homo sapiens, UniProt P00533). Description: Inhibition of EGFR (unknown origin) using peptide substrate incubated for 1 hrs in presence of ATP by fluorescence microplate reader.
The target of data set [10] is Ribosomal protein S6 kinase. Nature of the data set: Inhibition of p70S6K (unknown origin) using peptide substrate incubated for 1 hrs in presence of ATP by fluorescence microplate reader. It is filed as protein assay, Homo sapiens.
Data set [11] deals with T6, Tyrosine-protein kinase JAK3 (Homo sapiens, UniProt P52333).
T6 sequence (P52333 whole entry): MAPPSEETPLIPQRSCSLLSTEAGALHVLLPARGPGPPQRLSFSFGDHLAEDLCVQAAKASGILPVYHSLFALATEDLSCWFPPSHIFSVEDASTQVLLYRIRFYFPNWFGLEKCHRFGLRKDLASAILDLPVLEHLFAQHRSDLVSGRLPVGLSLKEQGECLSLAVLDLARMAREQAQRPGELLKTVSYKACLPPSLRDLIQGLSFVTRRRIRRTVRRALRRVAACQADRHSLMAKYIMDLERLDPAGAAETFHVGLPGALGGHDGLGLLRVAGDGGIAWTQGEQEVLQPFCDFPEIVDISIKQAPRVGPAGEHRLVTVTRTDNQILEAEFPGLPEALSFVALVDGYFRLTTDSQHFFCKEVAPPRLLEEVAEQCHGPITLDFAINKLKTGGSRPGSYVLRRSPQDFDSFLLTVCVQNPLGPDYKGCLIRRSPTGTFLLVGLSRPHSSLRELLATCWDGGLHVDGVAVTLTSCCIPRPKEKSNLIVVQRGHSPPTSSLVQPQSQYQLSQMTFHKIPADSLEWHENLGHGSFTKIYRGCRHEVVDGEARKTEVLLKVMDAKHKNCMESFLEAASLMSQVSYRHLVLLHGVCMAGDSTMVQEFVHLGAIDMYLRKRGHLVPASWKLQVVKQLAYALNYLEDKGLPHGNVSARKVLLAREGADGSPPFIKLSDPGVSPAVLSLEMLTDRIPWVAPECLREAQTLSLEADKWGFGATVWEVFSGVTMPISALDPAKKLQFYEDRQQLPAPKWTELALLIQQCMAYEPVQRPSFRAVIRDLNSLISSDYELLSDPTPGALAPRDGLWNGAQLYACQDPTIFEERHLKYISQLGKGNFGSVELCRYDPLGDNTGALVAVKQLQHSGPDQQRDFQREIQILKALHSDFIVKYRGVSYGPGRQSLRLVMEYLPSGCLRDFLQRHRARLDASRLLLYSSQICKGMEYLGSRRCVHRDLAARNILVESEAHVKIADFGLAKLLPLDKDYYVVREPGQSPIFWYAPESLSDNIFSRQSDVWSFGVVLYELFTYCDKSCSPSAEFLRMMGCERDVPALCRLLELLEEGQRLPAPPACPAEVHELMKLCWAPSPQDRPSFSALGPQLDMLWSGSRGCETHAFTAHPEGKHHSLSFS
Nature of the data set: Inhibition of JAK3 (unknown origin) using peptide substrate incubated for 1 hrs in presence of ATP by fluorescence microplate reader.

Data set [12] has as its target Serine/threonine-protein kinase pim-1 (Homo sapiens, UniProt P11309). Description: Inhibition of PIM1 (unknown origin) using peptide substrate incubated for 1 hrs in presence of ATP by fluorescence microplate reader.

A word on the IC50: it is the concentration needed to halve the response being measured. What is called inhibition is the relative decrease from the control value, in per cent.

Chain of Mast/stem cell growth factor receptor Kit (P10721 whole entry): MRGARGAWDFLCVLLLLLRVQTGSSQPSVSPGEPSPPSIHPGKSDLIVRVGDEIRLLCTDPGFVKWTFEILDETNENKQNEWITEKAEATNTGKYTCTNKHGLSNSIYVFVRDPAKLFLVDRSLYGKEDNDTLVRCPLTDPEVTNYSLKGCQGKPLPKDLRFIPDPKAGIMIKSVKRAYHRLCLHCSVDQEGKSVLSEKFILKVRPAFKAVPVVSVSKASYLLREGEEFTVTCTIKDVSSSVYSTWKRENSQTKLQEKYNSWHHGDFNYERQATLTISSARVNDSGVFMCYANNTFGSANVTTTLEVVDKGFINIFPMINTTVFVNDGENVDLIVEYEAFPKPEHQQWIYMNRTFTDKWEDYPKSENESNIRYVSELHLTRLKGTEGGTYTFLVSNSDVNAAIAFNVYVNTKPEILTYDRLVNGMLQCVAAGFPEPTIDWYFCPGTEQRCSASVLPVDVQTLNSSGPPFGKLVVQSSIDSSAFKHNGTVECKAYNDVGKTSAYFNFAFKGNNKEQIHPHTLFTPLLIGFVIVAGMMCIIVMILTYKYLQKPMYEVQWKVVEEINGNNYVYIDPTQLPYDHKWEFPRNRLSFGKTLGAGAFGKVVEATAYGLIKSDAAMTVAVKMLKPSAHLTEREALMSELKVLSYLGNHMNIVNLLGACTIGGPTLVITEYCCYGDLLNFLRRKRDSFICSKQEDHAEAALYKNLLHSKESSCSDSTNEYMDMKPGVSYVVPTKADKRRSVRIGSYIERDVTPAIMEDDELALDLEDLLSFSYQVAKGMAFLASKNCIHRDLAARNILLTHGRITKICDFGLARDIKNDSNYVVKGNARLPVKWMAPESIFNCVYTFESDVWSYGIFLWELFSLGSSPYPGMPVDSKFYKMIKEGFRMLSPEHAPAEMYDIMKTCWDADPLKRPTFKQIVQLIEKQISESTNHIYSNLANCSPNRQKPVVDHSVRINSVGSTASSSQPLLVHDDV
Chain of hERG (KCNH2) (Q12809 whole entry): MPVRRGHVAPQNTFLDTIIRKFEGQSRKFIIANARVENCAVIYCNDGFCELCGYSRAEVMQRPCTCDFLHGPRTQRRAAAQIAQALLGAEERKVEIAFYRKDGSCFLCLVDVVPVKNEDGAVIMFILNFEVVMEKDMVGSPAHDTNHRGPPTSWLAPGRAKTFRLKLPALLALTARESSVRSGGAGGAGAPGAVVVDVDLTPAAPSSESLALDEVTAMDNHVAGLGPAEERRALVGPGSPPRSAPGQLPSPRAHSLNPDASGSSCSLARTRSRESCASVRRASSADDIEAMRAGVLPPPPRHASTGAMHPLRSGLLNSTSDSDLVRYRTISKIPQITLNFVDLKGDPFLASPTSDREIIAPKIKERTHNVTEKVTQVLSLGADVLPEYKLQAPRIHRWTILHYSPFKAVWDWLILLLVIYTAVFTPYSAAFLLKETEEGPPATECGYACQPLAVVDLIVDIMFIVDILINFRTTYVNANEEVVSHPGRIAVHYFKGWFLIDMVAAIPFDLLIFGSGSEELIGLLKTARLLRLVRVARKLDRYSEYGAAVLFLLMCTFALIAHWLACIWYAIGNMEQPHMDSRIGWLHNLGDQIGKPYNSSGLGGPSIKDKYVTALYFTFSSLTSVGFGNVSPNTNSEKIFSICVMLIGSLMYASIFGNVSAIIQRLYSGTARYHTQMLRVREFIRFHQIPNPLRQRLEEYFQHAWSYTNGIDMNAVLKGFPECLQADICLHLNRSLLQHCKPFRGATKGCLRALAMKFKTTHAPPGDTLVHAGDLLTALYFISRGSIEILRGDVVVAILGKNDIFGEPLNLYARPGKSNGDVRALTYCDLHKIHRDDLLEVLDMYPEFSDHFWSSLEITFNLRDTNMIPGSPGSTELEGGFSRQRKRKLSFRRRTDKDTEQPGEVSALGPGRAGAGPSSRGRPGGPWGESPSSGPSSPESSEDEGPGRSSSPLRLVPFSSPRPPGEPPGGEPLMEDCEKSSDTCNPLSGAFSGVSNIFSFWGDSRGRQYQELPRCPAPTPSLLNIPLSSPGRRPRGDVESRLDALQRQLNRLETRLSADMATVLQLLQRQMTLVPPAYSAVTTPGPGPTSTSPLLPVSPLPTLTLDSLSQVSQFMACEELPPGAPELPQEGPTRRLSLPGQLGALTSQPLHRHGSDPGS
Chain of Epidermal growth factor receptor (P00533 whole entry): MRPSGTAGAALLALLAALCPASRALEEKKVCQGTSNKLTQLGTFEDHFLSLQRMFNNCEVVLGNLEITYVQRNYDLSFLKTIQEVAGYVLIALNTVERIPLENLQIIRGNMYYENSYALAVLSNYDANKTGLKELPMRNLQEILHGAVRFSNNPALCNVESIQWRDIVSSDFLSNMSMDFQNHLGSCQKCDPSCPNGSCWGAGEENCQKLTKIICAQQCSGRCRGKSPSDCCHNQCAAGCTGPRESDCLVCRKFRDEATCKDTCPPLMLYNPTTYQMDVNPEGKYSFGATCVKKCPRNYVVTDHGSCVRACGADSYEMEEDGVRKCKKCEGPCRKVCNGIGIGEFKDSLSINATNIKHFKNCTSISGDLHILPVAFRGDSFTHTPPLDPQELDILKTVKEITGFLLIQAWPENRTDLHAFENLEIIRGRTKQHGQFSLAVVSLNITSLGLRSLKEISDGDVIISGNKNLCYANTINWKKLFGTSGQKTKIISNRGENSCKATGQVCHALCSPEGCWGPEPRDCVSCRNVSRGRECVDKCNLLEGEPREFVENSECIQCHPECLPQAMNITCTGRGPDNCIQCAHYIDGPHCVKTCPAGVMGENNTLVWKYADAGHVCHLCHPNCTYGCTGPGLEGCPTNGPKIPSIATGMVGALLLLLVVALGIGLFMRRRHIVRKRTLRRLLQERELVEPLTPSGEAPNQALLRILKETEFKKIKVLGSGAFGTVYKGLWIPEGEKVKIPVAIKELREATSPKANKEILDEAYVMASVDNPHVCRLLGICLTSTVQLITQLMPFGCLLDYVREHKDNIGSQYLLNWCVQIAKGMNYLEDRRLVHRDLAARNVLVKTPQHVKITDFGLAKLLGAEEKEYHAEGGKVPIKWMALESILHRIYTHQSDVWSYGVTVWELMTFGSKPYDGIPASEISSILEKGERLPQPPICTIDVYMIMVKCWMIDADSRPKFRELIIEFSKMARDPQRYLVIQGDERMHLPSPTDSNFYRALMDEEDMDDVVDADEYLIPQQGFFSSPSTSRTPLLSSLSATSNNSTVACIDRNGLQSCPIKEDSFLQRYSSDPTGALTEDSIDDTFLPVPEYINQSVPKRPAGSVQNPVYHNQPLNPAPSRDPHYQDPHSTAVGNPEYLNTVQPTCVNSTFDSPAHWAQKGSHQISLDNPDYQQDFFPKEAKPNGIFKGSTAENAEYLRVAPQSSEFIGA
Chain of Tyrosine-protein kinase BTK (Q06187 whole entry): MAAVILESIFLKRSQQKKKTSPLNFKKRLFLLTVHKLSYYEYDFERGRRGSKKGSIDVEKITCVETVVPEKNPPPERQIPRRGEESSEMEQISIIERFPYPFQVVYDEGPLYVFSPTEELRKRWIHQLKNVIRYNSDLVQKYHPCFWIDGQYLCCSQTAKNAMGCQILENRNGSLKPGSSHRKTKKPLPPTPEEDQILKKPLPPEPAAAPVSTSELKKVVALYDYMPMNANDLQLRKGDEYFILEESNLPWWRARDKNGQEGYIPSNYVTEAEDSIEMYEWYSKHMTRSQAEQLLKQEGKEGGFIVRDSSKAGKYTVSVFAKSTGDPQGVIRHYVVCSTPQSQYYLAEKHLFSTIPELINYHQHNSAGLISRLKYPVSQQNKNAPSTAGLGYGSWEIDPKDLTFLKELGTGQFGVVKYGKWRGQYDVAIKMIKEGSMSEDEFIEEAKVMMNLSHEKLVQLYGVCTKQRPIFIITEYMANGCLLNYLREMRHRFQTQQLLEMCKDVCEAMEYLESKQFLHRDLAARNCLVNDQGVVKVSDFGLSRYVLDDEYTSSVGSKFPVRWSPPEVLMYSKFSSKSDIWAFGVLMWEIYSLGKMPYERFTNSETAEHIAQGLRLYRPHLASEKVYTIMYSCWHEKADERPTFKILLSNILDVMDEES
Chain of Serine/threonine-protein kinase pim-1 (P11309 whole entry): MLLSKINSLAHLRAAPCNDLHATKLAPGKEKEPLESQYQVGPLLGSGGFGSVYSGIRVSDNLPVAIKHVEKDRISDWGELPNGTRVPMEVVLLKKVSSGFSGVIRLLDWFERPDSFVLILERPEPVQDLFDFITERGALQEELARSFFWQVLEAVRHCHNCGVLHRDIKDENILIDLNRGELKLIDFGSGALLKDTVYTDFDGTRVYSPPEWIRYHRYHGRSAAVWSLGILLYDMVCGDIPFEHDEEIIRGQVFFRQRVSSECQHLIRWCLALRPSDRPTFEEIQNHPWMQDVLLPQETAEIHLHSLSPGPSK

In data set [1], `NCCCNc1nc(Nc2ccc3c(c2)CCS3(=O)=O)ncc1C(F)(F)F` returned an IC50 of 104 nM.

Regarding `NCCCNc1nc(Nc2ccc3c(c2)CCCN3S(=O)(=O)c2ccccc2)ncc1C(F)(F)F`, the half-inhibitory concentration (IC50) in [1] was 166 nM.

In data set [1], `NCCCNc1nc(Nc2ccc3c(c2)CCC3=O)ncc1C(F)(F)F` registered a half-inhibitory concentration (IC50) of 144 nM.

In turn, `CS(=O)(=O)N1CCc2cc(Nc3ncc(C(F)(F)F)c(NCCCN)n3)ccc21` yielded an inhibition at 10 µM against hERG (KCNH2) of 39.5%. Besides, the figures for the IC50 in data set [2] and in [1] were 12300 nM and 32.5 nM, respectively.

`CS(=O)(=O)N1CCCc2cc(Nc3ncc(C(F)(F)F)c(NCCCN)n3)ccc21` registered an inhibition at 10 µM at hERG (KCNH2) of 64.2%. Also, the IC50 in [2] was 9810 nM; in [1], 28.9 nM.

In the case of `NCCCNc1nc(Nc2ccc3c(c2)COC3=O)ncc1C(F)(F)F`, in data set [1], half-maximal inhibition (IC50) was put at 93.6 nM.

`CS(=O)(=O)N1CCOc2cc(Nc3ncc(C(F)(F)F)c(NCCCN)n3)ccc21`: the half-maximal inhibitory concentration (IC50) in data set [1] came to 183 nM.

`NCCCNc1nc(Nc2ccc3c(c2)CCCC3=O)ncc1C(F)(F)F` showed an inhibition at 10 µM against hERG (KCNH2) of 76.1%. Besides, the half-maximal inhibitory concentration (IC50) in data set [2] came to 10900 nM; in data set [1], 38.6 nM.

For `CS(=O)(=O)N1CCc2cc(Nc3ncc(C(F)(F)F)c(NCCCN)n3)ccc2C1`, the 50% inhibitory concentration (IC50) is 833 nM in data set [3]; > 10000 nM in data set [5]; 1860 nM on Aurora kinase A; 865 nM in [6]; > 10000 nM in data set [7]; 10500 nM in data set [2]. In addition, the half-inhibitory concentration (IC50) in [9] is > 10000 nM; in data set [10] it was 834.85 nM; in [1] it was 25.6 nM; in [11], > 10000 nM; in data set [12], > 10000 nM. Further, the inhibition result in data set [4] and in data set [8] was “Active” each time. In addition, on hERG (KCNH2), the inhibition at 10 µM was determined as 36.1%.

In data set [1], `NCCCNc1nc(Nc2ccc3c(c2)CCN(S(=O)(=O)c2ccccc2)C3)ncc1C(F)(F)F` registered a 50% inhibitory concentration (IC50) of 133 nM.

The compound `CC(=O)c1ccc(Nc2ncc(C(F)(F)F)c(NCCCN)n2)cc1` returned an IC50 in data set [1] of 89.3 nM.

In data set [1], `NCCCNc1nc(Nc2ccc3c(c2)OCO3)ncc1C(F)(F)F` yielded a half-inhibitory concentration (IC50) of 237 nM.

The compound `CS(=O)(=O)N1Cc2ccc(Nc3ncc(C(F)(F)F)c(NCCCN)n3)cc2C1` gave an inhibition at 10 µM against hERG (KCNH2) of 23.2%. The values for the concentration for half-maximal inhibition (IC50) in [2] and in data set [1] were 21300 nM and 35.2 nM, respectively.

As to `NCCCNc1nc(Nc2ccc3c(c2)CCN(S(=O)(=O)C2CCCCC2)C3)ncc1C(F)(F)F`, in data set [1], the 50% inhibitory concentration (IC50) was 100 nM.
